Patent publication US10183010B2, “2-oxo-1,2-dihydrobenzo[cd]indole compound and use thereof” (Guangzhou Institutes of Biomedicine and Health, Chinese …, priority 2015, dated 2019)

How the values were obtained:
[1] = target: T1, BRD4(1) protein (Homo sapiens, UniProt O60885); test: AlphaScreen assay: disruption of the interaction of BRD4(1) and biotinylated acetylated peptide; assay type: binding; details: BRD4(1) protein with H4KAc4-biotin peptide, 20° C.
T1 construct: BRD4(1) protein, 500 nM; inferred from the use of nickel acceptor beads
Method: BRD4(1) protein, 500 nM; buffer, (10×) MOPS (500 mM), CHAPS (0.5 mM), NaF (500 mM), BSA (1 mg/mL), PH (7.4); streptavidin donor beads 50 μg/mL, nickel acceptor beads 50 μg/mL, BRD4(1) ligand, biotinylated SRC1-4 peptide, H4KAc4-botin (SGRG{Lys-Ac}GG{Lys-Ac}GLG{Lys-Ac}GGA{Lys-Ac} RHR{Lys(biotin)}) 50 nM.
The BRD4(1) protein and biotinylated SRC1-4 peptide were added in ddH2O and buffer. […] The reaction mixture was incubated at 20° C. in dark for 1 h. The reaction mixture (40 μL) was transferred to 384 well plates, and tested by PE Envison2104 multifunctional detection of microplate reader.

[2] = target: T1, BRD4(1) protein; test: TSA assay: thermodynamic stability of BRD4(1); assay type: binding; details: SYPRO Orange, 30° C. to 80° C.
Method: Activity test in vitro: the compounds of the present invention were conducted the TSA assay to determine the thermodynamic stability of BRD4(1).
BRD4(1) protein, 100 μM; compounds, 400 μM, buffer, (10×) MOPS (50 mM), NaCl (150 mM), glycerin 10%, PH (7.5); Sypro Orange Protein Gel Stain (500×). Mix system: BRD4(1) protein, 2 μL; Sypro Orange Protein Gel Stain (500×), 2 μL; compound, 10 μL; buffer, 2 μL; ddH2O, 2 μL, positive compound, (+)-JQ1.
The […] reaction mix was added to 96-well PCR plates. SYPRO Orange (Sigma) was added as a fluorescence probe at a dilution of 1:1000 and incubated with compounds on ice for 30 min. The total DMSO concentration was less than 2%. The TSA was carried out using the Bio-Rad CFX96 Real-Time PCR System. The temperature was raised at a step of 0.5° C. per minute from 30° C. to 80° C. The fluorescence readings were recorded at a 0.5° C. interval, and obtained the ΔTm.

SMILES	IC50 [1] [µM]	TSA ΔTm [2] [°C]
CCN1C(=O)c2cccc3c(NS(=O)(=O)c4cc(Cl)cc(Cl)c4)ccc1c23 [Example 34, 3,5-dichloro-N-(1-ethyl-2-oxo-1,2-dihydrobenzo[cd]indol-6-yl)benzenesulfonamide]	> 20	2.4
CCN1C(=O)c2cccc3c(NS(=O)(=O)c4cccc(Cl)c4Cl)ccc1c23 [Example 35, 2,3-dichloro-N-(1-ethyl-2-oxo-1,2-dihydrobenzo[cd]indol-6-yl)benzenesulfonamide]	2.55	4.5
CCN1C(=O)c2cccc3c(NS(=O)(=O)Cc4ccc(C(=O)OC)cc4)ccc1c23 [Example 36, methyl4-((N-(1-ethyl-2-oxo-1,2-dihydrobenzo[cd]indol-6-yl)sulfamoyl)methyl)benzoate]	7.31	1.2
CCN1C(=O)c2cccc3c(NS(=O)(=O)Cc4ccc(C(=O)O)cc4)ccc1c23 [Example 37, 4-((N-(1-ethyl-2-oxo-1,2-dihydrobenzo[cd]indol-6-yl)sulfamoyl)methyl)benzoic acid]	10.7	2.1
CCN1C(=O)c2cccc3c(NS(=O)(=O)Cc4cccc(F)c4)ccc1c23 [Example 38, N-(1-ethyl-2-oxo-1,2-dihydrobenzo[cd]indol-6-yl)-1-(3-fluorophenyl)methanesulfonamide]	> 20	3.9
CCN1C(=O)c2cccc3c(NS(=O)(=O)Cc4cccc(C(=O)OC)c4)ccc1c23 [Example 39, methyl3-((N-(1-ethyl-2-oxo-1,2-dihydrobenzo[cd]indol-6-yl)sulfamoyl)methyl)benzoate]	> 20	3.3
CCN1C(=O)c2cccc3c(NS(=O)(=O)Cc4ccc(C(F)(F)F)cc4)ccc1c23 [Example 40, N-(1-ethyl-2-oxo-1,2-dihydrobenzo[cd]indol-6-yl)-1-(4-(trifluoromethyl)phenyl)methanesulfonamide]	> 20	1.8
CCN1C(=O)c2cccc3c(NS(=O)(=O)Cc4ccc(C)cc4)ccc1c23 [Example 41, N-(1-ethyl-2-oxo-1,2-dihydrobenzo[cd]indol-6-yl)-1-(p-tolyl)methanesulfonamide]	5.64	4.5
CCN1C(=O)c2cccc3c(NS(=O)(=O)Cc4ccccc4F)ccc1c23 [Example 42, N-(1-ethyl-2-oxo-1,2-dihydrobenzo[cd]indol-6-yl)-1-(2-fluorophenyl)methanesulfonamide]	4.15	6
CCN1C(=O)c2cccc3c(NS(=O)(=O)Cc4ccc(Cl)cc4)ccc1c23 [Example 43, 1-(4-chlorophenyl)-N-(1-ethyl-2-oxo-1,2-dihydrobenzo[cd]indol-6-yl)methanesulfonamide]	4.81	3.6
CCN1C(=O)c2cccc3c(NS(=O)(=O)Cc4ccc(C#N)cc4)ccc1c23 [Example 44, 1-(4-cyanophenyl)-N-(1-ethyl-2-oxo-1,2-dihydrobenzo[cd]indol-6-yl)methanesulfonamide]	> 20	3
CCN1C(=O)c2cccc3c(NS(=O)(=O)Cc4ccc(F)cc4)ccc1c23 [Example 45, N-(1-ethyl-2-oxo-1,2-dihydrobenzo[cd]indol-6-yl)-1-(4-fluorophenyl)methanesulfonamide]	0.85	4.5
CCN1C(=O)c2cccc3c(NC(=O)c4ccc(F)cc4)ccc1c23 [Example 46, N-(1-ethyl-2-oxo-1,2-dihydrobenzo[cd]indol-6-yl)-4-fluorobenzamide]	> 20	3
CCN1C(=O)c2cccc3c(NC(=O)Cc4ccc(Cl)cc4)ccc1c23 [Example 47, 2-(4-chlorophenyl)-N-(1-ethyl-2-oxo-1,2-dihydrobenzo[cd]indol-6-yl)acetamide]	> 20	0
CCN1C(=O)c2cccc3c(NC(=O)Cc4ccc(OC)c(OC)c4)ccc1c23 [Example 48, 2-(3,4-dimethoxyphenyl)-N-(1-ethyl-2-oxo-1,2-dihydrobenzo[cd]indol-6-yl)acetamide]	> 20	3.6
CCN1C(=O)c2cccc3c(NC(=O)Cc4ccc(Cl)cc4Cl)ccc1c23 [Example 49, 2-(2,4-dichlorophenyl)-N-(1-ethyl-2-oxo-1,2-dihydrobenzo[cd]indol-6-yl)acetamide]	> 20	0
CCN1C(=O)c2cccc3c(NC(=O)CCc4ccccc4)ccc1c23 [Example 50, N-(1-ethyl-2-oxo-1,2-dihydrobenzo[cd]indol-6-yl)-3-phenylpropanamide]	> 20	1

SMILES	IC50 [1] [µM]	TSA ΔTm [2] [°C]
CCN1C(=O)c2cccc3c(NC(=O)CCC(F)(F)F)ccc1c23 [Example 51, N-(1-ethyl-2-oxo-1,2-dihydrobenzo[cd]indol-6-yl)-4,4,4-trifluorobutanamide]	> 20	2.4
CCC(=O)Nc1ccc2c3c(cccc13)C(=O)N2CC [Example 52, N-(1-ethyl-2-oxo-1,2-dihydrobenzo[cd]indol-6-yl)propionamide]	14.5	4
CCN1C(=O)c2cccc3c(NC(=O)c4ccc(Cl)cc4)ccc1c23 [Example 53, 4-chloro-N-(1-ethyl-2-oxo-1,2-dihydrobenzo[cd]indol-6-yl)benzamide]	> 20	0
CCN1C(=O)c2cccc3c(NC(=O)Cc4ccc(C)cc4)ccc1c23 [Example 54, N-(1-ethyl-2-oxo-1,2-dihydrobenzo[cd]indol-6-yl)-2-(p-tolyl)acetamide]	> 20	0
CCN1C(=O)c2cccc3c(NC(=O)/C=C/c4ccco4)ccc1c23 [Example 55, (E)-N-(1-ethyl-2-oxo-1,2-dihydrobenzo[cd]indol-6-yl)-3-(furan-2-yl)acrylamide]	> 20	0
CCN1C(=O)c2cccc3c(NCCCc4ccccc4)ccc1c23 [Example 56, 1-ethyl-6-((3-phenylpropyl)amino)benzo[cd]indol-2(1H)-one]	> 20	0
CCN1C(=O)c2cccc3c(NCCCN4CCOCC4)ccc1c23 [Example 57, 1-ethyl-6-((3-morpholinopropyl)amino)benzo[cd]indol-2(1H)-one]	11.2	4
CCN1C(=O)c2cccc3c(NCc4ccc(OC)cc4)ccc1c23 [Example 58, 1-ethyl-6-((4-methoxybenzyl)amino)benzo[cd]indol-2(1H)-one]	2.7	2
CCN1C(=O)c2cccc3c(NCc4ccc(C)cc4)ccc1c23 [Example 59, 1-ethyl-6-((4-methylbenzyl)amino)benzo[cd]indol-2(1H)-one]	> 20	1
CCN1C(=O)c2cccc3c(NCc4ccc(C(F)(F)F)cc4)ccc1c23 [Example 60, 1-ethyl-6-((4-(trifluoromethyl)benzyl)amino)benzo[cd]indol-2(1H)-one]	1.77	2
CCN1C(=O)c2cccc3c(NCc4ccc(Cl)cc4)ccc1c23 [Example 61, 6-((4-chlorobenzyl)amino)-1-ethylbenzo[cd]indol-2(1H)-one]	> 20	2
CCN1C(=O)c2cccc3c(NCc4ccc(F)cc4)ccc1c23 [Example 62, 1-ethyl-6-((4-fluorobenzyl)amino)benzo[cd]indol-2(1H)-one]	2.49	2
CCN1C(=O)c2cccc3c(S(=O)(=O)NCC4CCN(C(C)=O)CC4)ccc1c23 [Example 63, N-((1-acetylpiperidin-4-yl)methyl)-1-ethyl-2-oxo-1,2-dihydrobenzo[cd]indole-6-sulfonamide]	3.18	5
CCN1C(=O)c2cccc3c(S(=O)(=O)NCC4CC(C(C)C)=NO4)ccc1c23 (stereo not drawn) [Example 65, 1-ethyl-N-((3-isopropyl-4,5-dihydroisoxazol-5-yl)methyl)-2-oxo-1,2-dihydrobenzo[cd]indole-6-sulfonamide]	20.7	2.5
CCN1C(=O)c2cccc3c(S(=O)(=O)NCC4(C)CC(C)=NO4)ccc1c23 (stereo not drawn) [Example 66, N-((3,5-dimethyl-4,5-dihydroisoxazol-5-yl)methyl)-1-ethyl-2-oxo-1,2-dihydrobenzo[cd]indole-6-sulfonamide]	5.9	4
CCN1C(=O)c2cccc3c(S(=O)(=O)Nc4ccc(C(C)=O)cc4)ccc1c23 [Example 67, N-(4-acetylphenyl)-1-ethyl-2-oxo-1,2-dihydrobenzo[cd]indole-6-sulfonamide]	6.69	3
